Assay [1] deals with panel of human cancer cell lines (23 pancreatic adenocarcinomas, 18 malignant melanomas, 36 colorectal adenocarcinomas). Put plainly: Cell viability assay to determine IC50 for Apo2L/TRAIL in a cancer cell line panel. In kind it is cell-based. The procedure: FIG. 10A-D illustrates differential expression of specific O-glycosylation enzymes in Apo2L/TRAIL-sensitive and -resistant cancer cell lines: (A) Cell viability was measured after incubation with varying doses of Apo2L/TRAIL. IC50 for each cell line was computed as the concentration of Apo2L/TRAIL that gives 50% loss of viability. Each cell viability experiment was repeated at least three times in presence of low (0.5%) and high (10%) fetal bovine serum. Black, grey, or open symbols depict cell lines that are highly sensitive, moderately sensitive, or resistant to Apo2L/TRAIL, respectively. (B) ppGalNAcT-14 mRNA expression levels (probe set 219271 at) in pancreatic and malignant melanoma cell lines. Cell lines are arranged by tissue type and sensitivity to Apo2L/TRAIL. Black, grey, or open bars depict cell lines as in A. (C) mRNA expression levels of Fut-6 (top panel, probe set 211885_x_at) and ppGalNAcT-3 (bottom panel, probe set 203397_s_at) in colorectal cancer cell lines. […] Athymic nude mice carrying GalNAcT-3/Fut-6-positive (left panel) or GalNAcT-3/Fut-6-negative (right panel) tumors received vehicle or Apo2L/TRAIL (60 mg/kg/day i.p. on days 0-4) and tumor volume was monitored (mean ±SE, N=10 mice/group). […]

The next assay relates to RKO tumor xenografts. The assay can be described thus: Tumor xenograft study, RKO. In kind it is in vivo, mice. Conditions: Fut-6-negative RKO; 60 mg/kg/day i.p. on days 0-4. The procedure: (§1) FIG. 10A-D illustrates differential expression of specific O-glycosylation enzymes in Apo2L/TRAIL-sensitive and -resistant cancer cell lines: (A) Cell viability was measured after incubation with varying doses of Apo2L/TRAIL. IC50 for each cell line was computed as the concentration of Apo2L/TRAIL that gives 50% loss of viability. Each cell viability experiment was repeated at least three times in presence of low (0.5%) and high (10%) fetal bovine serum. Black, grey, or open symbols depict cell lines that are highly sensitive, moderately sensitive, or resistant to Apo2L/TRAIL, respectively. (B) ppGalNAcT-14 mRNA expression levels (probe set 219271 at) in pancreatic and malignant melanoma cell lines. Cell lines are arranged by tissue type and sensitivity to Apo2L/TRAIL. […] Athymic nude mice carrying GalNAcT-3/Fut-6-positive (left panel) or GalNAcT-3/Fut-6-negative (right panel) tumors received vehicle or Apo2L/TRAIL (60 mg/kg/day i.p. on days 0-4) and tumor volume was monitored (mean ±SE, N=10 mice/group).
(§2) Monosaccharide composition of CHO-cell-derived DR5 was obtained after hydrolysis with 4 N TFA. […] Tumor measurements were collected by a digital caliper and tumor volumes calculated using the formula […] (A=length) (B=width)^2. […]

The next assay relates to DLD-1 tumor xenografts. The assay can be described thus: Tumor xenograft study, DLD-1. In kind it is in vivo, mice. The conditions noted are these: Fut-6-positive DLD-1; 60 mg/kg/day i.p. on days 0-4. The procedure: as §1, §2

As for “Apo2L/TRAIL: nontagged soluble recombinant human Apo2L/TRAIL, prepared as described in Lawrence et al.”, the “cell lines classified as highly or moderately sensitive to Apo2L/TRAIL” value in assay [1] (29/77 cell lines) amounted to 38%. Moreover, in assay [1] (mean over the 29 highly or moderately sensitive cell lines), the “Apo2L/TRAIL concentration required for achieving 50% cell death, mean” value is recorded as 250 ng/mL. In addition, the “effect on growth of established tumor xenografts” value with RKO tumor xenografts is “did not respond”; with DLD-1 tumor xenografts, “tumor regression followed by a greatly delayed tumor progression”.

For the origin of these results see patent US20080182277A1, “Assays and methods using biomarkers” (Genentech, Inc., priority 2005, published 2008).
